Experimental data taken from patent publication US9629816B2, “Small molecule therapeutic compounds targeting thioesterase deficiency disorders and methods of using the same” (The United States of America, as represented by the …, priority 2011, dated 2017).

System: INCL lymphoblasts
Experiment: Depletion of [35S]cysteine-labeled lipid thioesters / hydrolysis of S-acylated proteins in PPT1-deficient lymphoblasts
Assay type: cell-based, human
Conditions: lymphoblasts of nine NCL patients; 48 hours vs untreated cells (FIG. 8)
Method: Thus, this derivative was chosen for more extensive study of its ability to hydrolyze […] proteins, and to deplete lipid-extractable [^35S]cysteine thioesters from fibroblasts and lymphoblasts. INCL fibroblasts were obtained and cultured as described in Example 4. The cells were then labeled with [^35S]cysteine. Briefly, following incubation for six hours in medium lacking serum and cysteine/cystine, the cells were washed and then re-cultured for varying lengths of time in medium containing NtBuHA, with a change of medium every 12 hours. As controls, [^35S]cysteine-labeled cells were cultured in drug-free medium as well as medium containing 1M HA. Following incubation, cells were washed twice with cold PBS and then centrifuged at 2,250 g at 4° C. for 5 minutes. Lipid thioesters were then extracted from the cells and subject to analysis by high-performance thin layer chromatography. Briefly, the extracted fatty acyl esters were dissolved in chloroform:methanol (1:1) and an aliquot applied to a TLC plate and resolved using a mixture of chloroform:methanol:water (65:25:4). The plates were then dried and autoradiographs obtained.
The ability of NtBuHA to deplete [^35S]cysteine-thioester containing compounds was tested using [^35S]cysteine-labeled, immortalized lymphoblasts. […]

Structure (SMILES): CC(C)(C)NO [NtBuHA, N-(tert-Butyl)hydroxylamine]
- intensity of [35S]cysteine-labeled lipid bands: clear reduction in the intensity
